Values joined by “and” are separate entries in the source; they are usually repeats but may differ in a detail not shown here. Equal values may be shown once.
How the values were obtained:
[1] = molecular target: T1, serotonin receptor 5-HT2C (Homo sapiens, UniProt P28335); assay: CEREP 5-HT2C (h) (antagonist radioligand); assay type: binding; conditions: reference compound
T1 construct: purchased CEREP (contract assay) 0137, 1003
T1 sequence (P28335 33-458): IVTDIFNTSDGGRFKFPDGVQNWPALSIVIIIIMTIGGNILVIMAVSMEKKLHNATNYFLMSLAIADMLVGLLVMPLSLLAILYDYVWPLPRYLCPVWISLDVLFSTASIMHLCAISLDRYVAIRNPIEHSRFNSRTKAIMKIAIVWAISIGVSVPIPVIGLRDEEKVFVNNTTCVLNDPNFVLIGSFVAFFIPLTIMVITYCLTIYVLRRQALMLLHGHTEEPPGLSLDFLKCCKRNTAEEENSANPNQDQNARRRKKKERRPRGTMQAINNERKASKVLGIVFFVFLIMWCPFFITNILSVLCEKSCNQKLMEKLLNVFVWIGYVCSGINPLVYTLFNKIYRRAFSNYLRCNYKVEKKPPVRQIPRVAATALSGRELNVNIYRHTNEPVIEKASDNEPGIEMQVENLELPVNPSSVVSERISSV

[2] = molecular target: T1, serotonin receptor 5-HT2C; assay: CEREP 5-HT2C (h) (agonist radioligand); assay type: binding; conditions: reference compound
[3] = molecular target: neurotensin receptor NT; assay: CEREP NT (non-selective; agonist radioligand); assay type: binding; conditions: reference compound, Cat. No. 0465
[4] = system: adult rat lumbar DRG sensory neurons; assay: Neurite outgrowth from cultured DRG neurons; assay type: cell-based; conditions: for effect of pre-treatment on BT13-stimulated neurite outgrowth: LY294002 50 μM; for effect of pre-treatment on BT13-stimulated neurite outgrowth / block of BT13-stimulated neurite outgrowth, maximum length, mean difference / block of BT13-stimulated neurite outgrowth, total length, mean difference: PD98059 50 μM, SU6656 2 μM; for block of BT13-stimulated neurite outgrowth, maximum length, mean difference / block of BT13-stimulated neurite outgrowth, total length, mean difference: pre-treatment with inhibitor: LY294002 50 μM
Description: Cultured lumbar DRG (L3–L5) neurons were prepared using a published method (O'Mullane et al., [2013]). After plating onto poly-L-ornithine (5 μg/ml)/laminin (5 μg/ml) coated coverslips for 1 h, DRG neurons were cultured for 24–30 h in fresh Neurobasal A/B27. GFLs, BT13, NGF, and vehicle control were added at the start of this period for a 24–30 h treatment, except when preceded by pre-treatment (1 h) with inhibitors (50 μM LY294002; 2 μM SU6656, […]; Biomol Research Laboratories, Plymouth Meeting, PA, USA). DRG neurons were then fixed (4% paraformaldehyde) and processed for immunocytochemistry with 1:200 Mouse anti-β III tubulin/AlexaFluor 594 (Sigma-Aldrich Cat# T8660 RRID:AB_477590) and 1:5,000 rabbit anti-calcitonin gene-related peptide/AlexaFluor 488 (Sigma-Aldrich Cat# C8198 RRID:AB_259091) and DAPI for nuclear staining (0.5 μg/ml, Molecular Probes). Image analysis of multichannel 12 bit Zeiss .ZVI or .TIF files (captured with a Zeiss Imager.M1/MRm camera/Zen software; Carl Zeiss Australia, North Ryde, NSW, Australia) was then performed by a researcher blinded to the experimental condition. Neurite initiation was measured by a single parameter (proportion of neurons with neurites longer than the soma diameter). Neurite elongation was measured by batch processing (HCA-Vision software; CSIRO Mathematical and Information Sciences, North Ryde, NSW, Australia) to obtain four parameters—Root number: number of primary neurites; Maximum length: length of longest neurite; Branch points: number of neurite branch points; and Total length: sum of neurite lengths (Kalous and Keast, [2010]; Kalous et al., [2012]). The number of neurons of each immunocytochemical class counted on each coverslip (technical replicates) was 50 for neurite initiation and 20 for neurite elongation. A minimum of three cultures from different rats (biological replicates) were analyzed for each treatment group.

[5] = system: rats with spinal nerve ligation (L5/L6); assay: Spinal nerve ligation (Chung's) model of experimental neuropathy, von Frey test
[6] = molecular target: T2, GFRα1/RET (Homo sapiens, UniProt P07949); set-up: method as in Sidorova et al., 2010; conditions: GDNF in this assay, ref Sidorova et al., 2010, cited from earlier work
T2 construct: full-length human RET (long isoform) in pCR3.1; expressed in transfected cells; host or cells: MG87 murine fibroblasts (MG87RET + PathDetect Elk-1 + GFRα1)

[7] = system: dorsal root ganglia neurons of SNL rats; assay: Immunohistochemistry of DRG neuronal markers in rats with spinal nerve ligation; assay type: in vivo, rat; conditions: IHC
From the text: DRGs from rats with spinal nerve ligation treated with BT13 or vehicle were embedded in paraffin and sectioned (7 μm thickness). Sections were deparaffinized, subjected to citrate or basic antigen-retrieval procedure and probed with IB4-Alexa 488 [1:200; IB4-Alexa488, Cat# IB4 (isolectin Griffonia simplicifolia IB4) RRID:AB_2314664] and antibodies against calcitonin gene-related peptide (CGRP; 1:10,000, Peninsula Laboratory, Cat# T-4032 RRID:AB_2313775), NPY (1:10,000, Peninsula Laboratory, Cat# T-4070.0050 RRID:AB_518504), pErk1/2 (1:300, Cell Signaling, Cat# 4370L RRID:AB_2297462), pS6 (1:300, Cell Signaling, Cat# 4858L RRID:AB_1031194) or RET [1:100, kind gift of Dr. E. Kramer, Center for Molecular Neurobiology, University Medical Center Hamburg-Eppendorf, Hamburg, Germany (Meka et al., [2015])] and corresponding secondary antibodies conjugated with fluorophores (Donkey Anti-Rabbit Alexa Fluor 647 conjugate, Cat# A31573 RRID:AB_162544; Donkey anti-Mouse Alexa Fluor 647 conjugate, Cat# A-31571 RRID:AB_2536181; Goat anti-Guinea Pig, Alexa Fluor 568 conjugate, Cat# A-11075 RRID:AB_2534119, Thermo Fisher Scientific, USA) or horse radish peroxidase (VECTASTAIN Elite ABC-Peroxidase Kit antibody, Vector Laboratories, CA, USA, Cat# PK-6101 RRID:AB_2336820). In the latter case, to reveal staining slides were treated with ABC and DAB staining kits (Vector Laboratories, CA, USA) according to the manufacturer's instructions. Sections were co-stained with guinea pig anti-PGP9.5 antibodies (Abcam Cat# ab10410 RRID:AB_297150) whenever possible. Nuclei were visualized using hematoxylin or DAPI dyes. Sections were mounted in Immu-Mount (Thermo Scientific, Cat#9990402) or Coverquick 2000 (Q PATH, Cat#05547530) mounting media and images were taken with fluorescent (Zeiss Imager M2 Axio, Carl Zeiss, Germany) or bright-field (Olympus BX-61, Olympus, Japan) microscopes. Neurons were counted for two sections per DRG and the number of cell profiles with nuclei positive for each specific marker was normalized to the total number of the neurons (identified by PGP9.5 staining or by morphology) per section. Ret-positive neurons were clustered by size using Matlab software R2014b (Mathworks, USA). Statistical analysis was performed using data from three to six individual animals. To obtain sufficient sample size, the data from animals treated with 20 and 25 mg/kg of BT13 were combined.

[8] = gabapentin single oral dose 100 mg/kg on day 12, 1 h before test

T2 sequence (P07949 29-1114): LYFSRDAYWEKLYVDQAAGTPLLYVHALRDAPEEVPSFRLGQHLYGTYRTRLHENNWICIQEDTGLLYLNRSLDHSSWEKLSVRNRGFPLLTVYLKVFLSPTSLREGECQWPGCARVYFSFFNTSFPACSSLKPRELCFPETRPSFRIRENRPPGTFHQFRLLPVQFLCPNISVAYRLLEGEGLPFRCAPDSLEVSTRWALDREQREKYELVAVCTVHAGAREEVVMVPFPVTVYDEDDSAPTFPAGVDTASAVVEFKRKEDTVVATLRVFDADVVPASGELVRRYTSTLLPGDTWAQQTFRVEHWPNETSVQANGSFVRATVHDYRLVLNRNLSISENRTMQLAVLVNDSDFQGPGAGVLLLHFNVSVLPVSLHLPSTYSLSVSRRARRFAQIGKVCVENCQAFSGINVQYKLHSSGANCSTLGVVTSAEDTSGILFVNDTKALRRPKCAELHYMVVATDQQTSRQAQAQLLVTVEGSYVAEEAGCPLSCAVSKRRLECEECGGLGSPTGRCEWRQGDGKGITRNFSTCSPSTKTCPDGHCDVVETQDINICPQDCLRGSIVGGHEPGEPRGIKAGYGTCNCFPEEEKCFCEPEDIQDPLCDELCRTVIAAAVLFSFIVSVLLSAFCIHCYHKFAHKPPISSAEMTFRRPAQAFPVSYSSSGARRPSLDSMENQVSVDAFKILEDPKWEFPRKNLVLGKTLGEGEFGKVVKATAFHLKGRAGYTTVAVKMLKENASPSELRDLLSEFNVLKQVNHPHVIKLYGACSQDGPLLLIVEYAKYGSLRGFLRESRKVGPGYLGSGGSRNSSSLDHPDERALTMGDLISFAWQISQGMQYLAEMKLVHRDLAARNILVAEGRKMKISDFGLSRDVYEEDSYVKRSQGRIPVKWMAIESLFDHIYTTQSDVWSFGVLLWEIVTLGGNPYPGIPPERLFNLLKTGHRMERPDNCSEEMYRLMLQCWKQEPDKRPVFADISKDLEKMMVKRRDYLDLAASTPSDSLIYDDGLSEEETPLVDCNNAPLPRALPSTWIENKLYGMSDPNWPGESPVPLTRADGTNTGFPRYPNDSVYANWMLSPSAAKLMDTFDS

COc1cc(OC)c(C(=O)CCCCN2CCC3(CC2)NC(=O)NC3=O)cc1NS(=O)(=O)c1ccc(C(F)(F)F)cc1 [RS 102221]
IC50 ([1]; Cat. No. 0137): 3 nM
Ki ([1]; Cat. No. 0137, read-out: Ki Ref): 0.99 nM

COc1cc(CC(C)N)c(OC)cc1I (racemic) [(±)DOI]
IC50 ([2]; Cat. No. 1003): 0.46 nM
Ki ([2]; Cat. No. 1003, read-out: Ki Ref): 0.42 nM

Neurotensin
IC50 [3]: 2.9 nM
Ki ([3]; read-out: Ki Ref): 2.7 nM

CN(C)S(=O)(=O)c1ccc2c(c1)/C(=C/c1cc3c([nH]1)CCCC3)C(=O)N2 [SU6656, reference compound]
effect of pre-treatment on BT13-stimulated neurite outgrowth [4]: completely blocked
block of BT13-stimulated neurite outgrowth, maximum length, mean difference ([4]; BT13 100 ng/ml): 116 ± 53 μm
block of BT13-stimulated neurite outgrowth, total length, mean difference ([4]; BT13 100 ng/ml): 1098 ± 343 μm

NCC1(CC(=O)O)CCCCC1 [gabapentin, reference compound]
contralateral PWT [5, 8]: 26 ± 0.0
ipsilateral PWT [5, 8]: 24.2 ± 1.83

O=c1cc(N2CCOCC2)oc2c(-c3ccccc3)cccc12 [LY294002, reference compound]
effect of pre-treatment on BT13-stimulated neurite outgrowth [4]: completely blocked
block of BT13-stimulated neurite outgrowth, branch points, mean difference ([4]; pre-treatment with LY294002 50 μM, BT13 100 ng/ml): 22 ± 5
block of BT13-stimulated neurite outgrowth, maximum length, mean difference ([4]; BT13 100 ng/ml): 100.7 ± 13 μm
block of BT13-stimulated neurite outgrowth, total length, mean difference ([4]; BT13 100 ng/ml): 817 ± 207 μm

COc1cccc(-c2cc(=O)c3ccccc3o2)c1N [PD98059, reference compound]
effect of pre-treatment on BT13-stimulated neurite outgrowth [4]: completely blocked
block of BT13-stimulated neurite outgrowth, maximum length, mean difference ([4]; BT13 100 ng/ml): 78 ± 17 μm
block of BT13-stimulated neurite outgrowth, total length, mean difference ([4]; BT13 100 ng/ml): 449 ± 113 μm

B1: glial cell line-derived neurotrophic factor (protein, UniProt P39905 78-211, looked up)
Glial cell line-derived …: SPDKQMAVLPRRERNRQAAAANPENSRGKGRRGQRGKNRGCVLTAIHLNVTDLGLGYETKEELIFRYCSGSCDAAETTYDKILKNLSRNRRLVSDKVGQACCRPIAFDDDLSFLDDNLVYHILRKHSAKRCGCI
notes: GDNF family ligand protein from PeproTech
efficacy, fold induction of luciferase above baseline [6]: 84.9 fold and 50–100 fold
EC50 ([6]; read-out: EC50, luciferase activation): 1.2 nM

B2: artemin (protein, UniProt Q5T4W7 108-220, looked up)
Artemin: AGGPGSRARAAGARGCRLRSQLVPVRALGLGHRSDELVRFRFCSGSCRRARSPHDLSLASLLGAGALRPPPGSRPVSQPCCRPTRYEAVSFMDVNSTWRTVDRLSATACGCLG
notes: as for B1
neurite initiation or extension ([4]; CGRP-negative neurons, NGF 10 ng/ml, ARTN 30 ng/ml, BT13 100 ng/ml): no effect
neurite elongation significantly increased ([4]; CGRP-positive neurons, ARTN 30 ng/ml): not
neurite initiation ([4]; CGRP-positive neurons, NGF 10 ng/ml, ARTN 30 ng/ml, BT13 100 ng/ml, overnight): significantly increased
proportion of DRG neurons that expressed CGRP in culture ([4]; NGF 10 ng/ml, ARTN 30 ng/ml, BT13 100 ng/ml): did not alter
reduction in the number of RET-positive cells in DRGs after SNL ([7]; day 12 after SNL): restored
number of large RET-positive neurons in lesioned DRGs ([7]; size above 1,000 μm^2, vs contralateral): increased
number of small RET-positive neurons in lesioned DRGs ([7]; size below 1,000 μm^2, vs contralateral): decreased
increase of ipsilateral paw withdrawal threshold (PWT) ([5]; ARTN 0.5 mg/kg s.c. on days 1, 3, 5, 8, 10, 12, von Frey, day 12 post-surgery): 2.6 times

— article PMC5478727, “A Novel Small Molecule GDNF Receptor RET Agonist, BT13, Promotes Neurite Growth from Sensory Neurons in Vitro and Attenuates Experimental Neuropathy in the Rat” (Frontiers in Pharmacology, 2017)
